Reference: US9359367B2, “Tetrahydroquinazolinone derivatives as PARP inhibitors” (Lupin Limited, priority 2012, dated 2016)

The molecules below were run against T1, PARP1 (Homo sapiens, UniProt P09874) (assay: PARP1 Biochemical Assay (BPS Bioscience kit, chemiluminescence)). Settings: histone-coated plate, biotinilated NAD+, 25° C. for 60 min, luminescence, read-out: PARP 1 inhibition IC50.
T1 construct: purchased BPS Bioscience
Protocol: The assay was performed using BPS Bioscience kit. The 96-well strip plate was coated with 50 μl of histone mixture and incubated at 4° C. overnight. Next day the wells were blocked by adding 100 μl of blocking buffer. The plate was washed and 25 μl of appropriate concentration of PARP1 (25-75 ng/well) was added in all the Test and Positive control wells. In Negative control wells enzyme was replaced with 25 μl of water. To it 5 μl each of 10×PARP assay buffer and activated DNA was added in all the wells (Test, Positive and Negative control wells). 10× concentration of test compounds were prepared and 5 μl test compounds were added respective wells. Reaction volume was made up to 45 μl by adding water to all the wells. Finally, 5 μl of 10×PARP assay mixture containing biotinilated NAD^+ was added in each well and the plate was incubated at ambient temperature (25° C.) for 60 min. After washing the plate 50 μl of Streptavidin-HRP was added in each well and incubated the plate at RT for 30 min. The plate was washed and the luminescence was read in PHERAStar plate reader after adding 100 μl of chemiluminescent substrate.
PARP inhibition was calculated using the following formula: % PARP inhibition=100−[(RLU test compound treated sample−RLU negative control)/(RLU Positive control−RLU negative control)×100]
IC50 values were calculated by plotting % inhibition against the respective concentrations of test compounds using GraphPad Prism 5.

T1 sequence (P09874 whole entry): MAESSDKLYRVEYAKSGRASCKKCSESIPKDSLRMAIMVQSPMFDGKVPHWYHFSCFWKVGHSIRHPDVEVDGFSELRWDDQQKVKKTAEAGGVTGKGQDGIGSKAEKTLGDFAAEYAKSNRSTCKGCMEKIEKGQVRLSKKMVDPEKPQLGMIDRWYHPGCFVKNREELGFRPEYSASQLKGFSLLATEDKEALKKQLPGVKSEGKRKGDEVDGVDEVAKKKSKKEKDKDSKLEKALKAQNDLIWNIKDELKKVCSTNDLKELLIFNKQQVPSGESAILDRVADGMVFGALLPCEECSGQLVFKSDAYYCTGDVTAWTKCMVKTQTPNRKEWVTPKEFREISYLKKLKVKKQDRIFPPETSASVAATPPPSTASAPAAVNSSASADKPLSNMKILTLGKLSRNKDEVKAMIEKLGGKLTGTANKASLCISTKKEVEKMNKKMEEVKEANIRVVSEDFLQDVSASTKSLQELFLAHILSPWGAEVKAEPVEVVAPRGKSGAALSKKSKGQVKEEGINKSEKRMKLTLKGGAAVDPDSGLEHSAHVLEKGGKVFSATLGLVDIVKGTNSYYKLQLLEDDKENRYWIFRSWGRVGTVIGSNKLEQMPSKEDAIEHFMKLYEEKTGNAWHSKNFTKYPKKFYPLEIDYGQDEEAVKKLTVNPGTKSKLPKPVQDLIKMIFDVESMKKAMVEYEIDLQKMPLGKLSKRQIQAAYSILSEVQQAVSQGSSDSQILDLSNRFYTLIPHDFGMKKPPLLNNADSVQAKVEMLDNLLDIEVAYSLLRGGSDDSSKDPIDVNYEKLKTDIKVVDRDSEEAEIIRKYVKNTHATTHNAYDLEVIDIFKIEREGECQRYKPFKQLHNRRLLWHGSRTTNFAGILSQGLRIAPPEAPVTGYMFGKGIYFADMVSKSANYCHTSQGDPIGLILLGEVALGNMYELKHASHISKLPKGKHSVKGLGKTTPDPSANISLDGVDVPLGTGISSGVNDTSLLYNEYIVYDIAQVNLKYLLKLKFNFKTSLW

SMILES | IC50
O=c1[nH]c(C2=C[C@H](N3CCN(c4ccc(F)cc4Cl)CC3)CC2)nc2c1CC1(CC2)CC1 [Compound 79, (R)-2′-(3-(4-(2-chloro-4-fluorophenyl)piperazin-1-yl)cyclopent-1-en-1-yl)-7′,8′-dihydro-3′H-spiro[cyclopropane-1,6′-quinazolin]-4′(5′H)-one] | 1 to 500 nM
O=c1[nH]c(C2=C[C@H](N3CCN(c4ccc(F)cc4)CC3)CC2)nc2c1CC1(CC2)CC1 [Compound 42, (R)-2′-(3-(4-(4-fluorophenyl)piperazin-1-yl)cyclopent-1-en-1-yl)-7′,8′-dihydro-3′H-spiro[cyclopropane-1,6′-quinazolin]-4′(5′H)-one] | 1 to 500 nM
Cc1ccc(N2CCN(CCCc3nc4c(c(=O)[nH]3)CC3(CC4)CC3)CC2)cc1 [Compound 32, 2′-(3-(4-(p-tolyl)piperazin-1-yl)propyl)-7′,8′-dihydro-3′H-spiro[cyclopropane-1,6′-quinazolin]-4′(5′H)-one] | 1 to 500 nM
O=c1[nH]c(CCCN2CCN(c3cccc(C(F)(F)F)c3)CC2)nc2c1CC1(CC2)CC1 [Compound 22, 2′-(3-(4-(3-(trifluoromethyl)phenyl)piperazin-1-yl)propyl)-7′,8′-dihydro-3′H-spiro[cyclopropane-1,6′-quinazolin]-4′(5′H)-one] | 5000 to 500000 nM
O=c1[nH]c(CCCN2CCN(c3ccccn3)CC2)nc2c1CC1(CC2)CC1 [Compound 20, 2′-(3-(4-(pyridin-2-yl)piperazin-1-yl)propyl)-7′,8′-dihydro-3′H-spiro[cyclopropane-1,6′-quinazolin]-4′(5′H)-one] | 5000 to 500000 nM
O=c1[nH]c(CCCN2CCN(c3cccc(Cl)c3)CC2)nc2c1CC1(CC2)CC1 [Compound 18, 2′-(3-(4-(3-chlorophenyl)piperazin-1-yl)propyl)-7′,8′-dihydro-3′H-spiro[cyclopropane-1,6′-quinazolin]-4′(5′H)-one] | 5000 to 500000 nM
O=c1[nH]c(C2=C[C@H](N3CCN(c4ccc(F)c(F)c4)CC3)CC2)nc2c1CC1(CC2)CC1 [Compound 62, (R)-2′-(3-(4-(3,4-difluorophenyl)piperazin-1-yl)cyclopent-1-en-1-yl)-7′,8′-dihydro-3′H-spiro[cyclopropane-1,6′-quinazolin]-4′(5′H)-one] | 1 to 500 nM
Cc1ccc(N2CCN([C@H]3C=C(c4nc5c(c(=O)[nH]4)CC4(CC5)CC4)CC3)CC2)cc1F [Compound 84, (R)-2′-(3-(4-(3-fluoro-4-methylphenyl)piperazin-1-yl)cyclopent-1-en-1-yl)-7′,8′-dihydro-3′H-spiro[cyclopropane-1,6′-quinazolin]-4′(5′H)-one] | 1 to 500 nM
CNC(=O)c1ccc(N2CCN([C@H]3C=C(c4nc5c(c(=O)[nH]4)CC4(CC5)CC4)CC3)CC2)cc1F [Compound 89, (R)-2-fluoro-N-methyl-4-(4-(3-(4′-oxo-4′,5′,7′,8′-tetrahydro-3′H-spiro[cyclopropane-1,6′-quinazolin]-2′-yl)cyclopent-2-en-1-yl)piperazin-1-yl)benzamide] | 1 to 500 nM
O=c1[nH]c(C2=C[C@H](N3CCN(c4cccc(F)c4)CC3)CC2)nc2c1CC1(CC2)CC1 [Compound 78, (R)-2′-(3-(4-(3-fluorophenyl)piperazin-1-yl)cyclopent-1-en-1-yl)-7′,8′-dihydro-3′H-spiro[cyclopropane-1,6′-quinazolin]-4′(5′H)-one] | 1 to 500 nM
O=c1[nH]c(C2=C[C@@H](N3CCN(c4ccc(Cl)cc4)CC3)CC2)nc2c1CCCC21CC1 [Compound 40, (S)-2′-(3-(4-(4-chlorophenyl)piperazin-1-yl)cyclopent-1-en-1-yl)-6′,7′-dihydro-3′H-spiro[cyclopropane-1,8′-quinazolin]-4′(5′H)-one] | 1 to 500 nM
O=c1[nH]c(CCCN2CC3CC2CN3c2ccc(F)cc2)nc2c1CC1(CC2)CC1 (stereo not drawn) [Compound 11, 2′-(3-(5-(4-fluorophenyl)-2,5-diazabicyclo[2.2.1]heptan-2-yl)propyl)-7′,8′-dihydro-3′H-spiro[cyclopropane-1,6′-quinazolin]-4′(5′H)-one] | 501 to 5000 nM
CC1CN(c2ccc(F)cc2)CC(C)N1CCCc1nc2c(c(=O)[nH]1)CC1(CC2)CC1 (stereo not drawn) [Compound 26, 2′-(3-(4-(4-fluorophenyl)-2,6-dimethylpiperazin-1-yl)propyl)-7′,8′-dihydro-3′H-spiro[cyclopropane-1,6′-quinazolin]-4′(5′H)-one] | 5000 to 500000 nM
O=c1[nH]c(CCCN2CCN(c3ccccc3)CC2)nc2c1CC1(CC2)CC1 [Compound 13, 2′-(3-(4-phenylpiperazin-1-yl)propyl)-7′,8′-dihydro-3′H-spiro[cyclopropane-1,6′-quinazolin]-4′(5′H)-one] | 501 to 5000 nM
CC(C)(/C=C/c1nc2c(c(=O)[nH]1)CC1(CC2)CC1)N1CCN(c2ccc(F)cc2)CC1 [Compound 31, (E)-2′-(3-(4-(4-fluorophenyl)piperazin-1-yl)-3-methylbut-1-en-1-yl)-7′,8′-dihydro-3′H-spiro[cyclopropane-1,6′-quinazolin]-4′(5′H)-one] | 5000 to 500000 nM
O=c1[nH]c(C2=C[C@H](N3CCN(c4ccc(Cl)cc4)CC3)CC2)nc2c1CC1(CC2)CC1 [Compound 37, (R)-2′-(3-(4-(4-chlorophenyl)piperazin-1-yl)cyclopent-1-en-1-yl)-7′,8′-dihydro-3′H-spiro[cyclopropane-1,6′-quinazolin]-4′(5′H)-one] | 1 to 500 nM

Second part, the molecule after the results:

IC50 | SMILES
501 to 5000 nM | O=c1[nH]c(C2=C[C@H](N3CCN(c4cc(F)cc(Cl)c4)CC3)CC2)nc2c1CC1(CC2)CC1 [Compound 115, (R)-2′-(3-(4-(3-chloro-5-fluorophenyl)piperazin-1-yl)cyclopent-1-en-1-yl)-7′,8′-dihydro-3′H-spiro[cyclopropane-1,6′-quinazolin]-4′(5′H)-one]
5000 to 500000 nM | O=c1[nH]c([C@@H]2CC[C@@H](N3CCN(c4cccc(F)c4)CC3)C2)nc2c1CC1(CC2)CC1 [Compound 156, 2′-((1R,3R)-3-(4-(3-fluorophenyl)piperazin-1-yl)cyclopentyl)-7′,8′-dihydro-3′H-spiro[cyclopropane-1,6′-quinazolin]-4′(5′H)-one]
5000 to 500000 nM | O=c1[nH]c(C2=C[C@H](N3CCN(c4ncccn4)CC3)CC2)nc2c1CC1(CC2)CC1 [Compound 128, (R)-2′-(3-(4-(pyrimidin-2-yl)piperazin-1-yl)cyclopent-1-en-1-yl)-7′,8′-dihydro-3′H-spiro[cyclopropane-1,6′-quinazolin]-4′(5′H)-one]
1 to 500 nM | Cc1cc(F)ccc1N1CCN([C@H]2C=C(c3nc4c(c(=O)[nH]3)CC3(CC4)CC3)CC2)CC1 [Compound 95, (R)-2′-(3-(4-(4-fluoro-2-methylphenyl)piperazin-1-yl)cyclopent-1-en-1-yl)-7′,8′-dihydro-3′H-spiro[cyclopropane-1,6′-quinazolin]-4′(5′H)-one]
1 to 500 nM | Cc1c(Cl)cccc1N1CCN([C@H]2C=C(c3nc4c(c(=O)[nH]3)CC3(CC4)CC3)CC2)CC1 [Compound 143, (R)-2′-(3-(4-(3-chloro-2-methylphenyl)piperazin-1-yl)cyclopent-1-en-1-yl)-7′,8′-dihydro-3′H-spiro[cyclopropane-1,6′-quinazolin]-4′(5′H)-one]
1 to 500 nM | O=c1[nH]c(C2=C[C@H](N3CCN(c4ccccc4Cl)CC3)CC2)nc2c1CC1(CC2)CC1 [Compound 122, (R)-2′-(3-(4-(2-chlorophenyl)piperazin-1-yl)cyclopent-1-en-1-yl)-7′,8′-dihydro-3′H-spiro[cyclopropane-1,6′-quinazolin]-4′(5′H)-one]
1 to 500 nM | CNC(=O)c1ccc(N2CCN([C@H]3C=C(c4nc5c(c(=O)[nH]4)CC4(CC5)CC4)CC3)CC2)cc1Cl [Compound 94, (R)-2-chloro-N-methyl-4-(4-(3-(4′-oxo-4′,5′,7′,8′-tetrahydro-3′H-spiro[cyclopropane-1,6′-quinazolin]-2′-yl)cyclopent-2-en-1-yl)piperazin-1-yl)benzamide]
1 to 500 nM | Cc1c(F)cccc1N1CCN([C@H]2C=C(c3nc4c(c(=O)[nH]3)CC3(CC4)CC3)CC2)CC1 [Compound 108, (R)-2′-(3-(4-(3-fluoro-2-methylphenyl)piperazin-1-yl)cyclopent-1-en-1-yl)-7′,8′-dihydro-3′H-spiro[cyclopropane-1,6′-quinazolin]-4′(5′H)-one]
501 to 5000 nM | O=c1[nH]c(C2=C[C@H](N3CCN(c4ccc(-c5ccccc5)cc4)CC3)CC2)nc2c1CC1(CC2)CC1 [Compound 158, (R)-2′-(3-(4-([1,1′-biphenyl]-4-yl)piperazin-1-yl)cyclopent-1-en-1-yl)-7′,8′-dihydro-3′H-spiro[cyclopropane-1,6′-quinazolin]-4′(5′H)-one]
1 to 500 nM | N#Cc1ccc(N2CCN([C@H]3C=C(c4nc5c(c(=O)[nH]4)CC4(CC5)CC4)CC3)CC2)c(F)c1 [Compound 111, (R)-3-fluoro-4-(4-(3-(4′-oxo-4′,5′,7′,8′-tetrahydro-3′H-spiro[cyclopropane-1,6′-quinazolin]-2′-yl)cyclopent-2-en-1-yl)piperazin-1-yl)benzonitrile]
5000 to 500000 nM | CCc1cnc(N2CCN([C@H]3C=C(c4nc5c(c(=O)[nH]4)CC4(CC5)CC4)CC3)CC2)nc1 [Compound 135, (R)-2′-(3-(4-(5-ethylpyrimidin-2-yl)piperazin-1-yl)cyclopent-1-en-1-yl)-7′,8′-dihydro-3′H-spiro[cyclopropane-1,6′-quinazolin]-4′(5′H)-one]
